Experimental findings from ChEMBL document CHEMBL6134789, “Asymmetric imidazole-4,5-dicarboxamide derivatives as SARS-CoV-2 main protease inhibitors: design, synthesis and biological evaluation” (RSC Med Chem, 2024) are described below.

pIC50, pKi: −log10 of the molar value.

Series [1] deals with Replicase polyprotein 1ab (Severe acute respiratory syndrome coronavirus 2) (UniProt P0DTD1). Briefly: Inhibition of recombinant SARS-CoV-2 main protease at 1 uM using Dabcyl-KTSAVLQSGFRKM{Glu(Edans)} as substrate preincubated for 10 mins followed by substrate addition and measured at 60 secs interval for 30 mins by fluorogenic assay relative to control. Conditions: time 40.0 min.

Another series deals with 16HBE14o-. As to the kind of experiment: Cytotoxicity against human 16HBE14o- cells assessed as reduction in cell viability at 100 uM measured after 24 hrs by MTT assay. It counts as toxicity, cell-based. (In general: Tetrazolium assays rely on reduction of a dye to a coloured formazan, in cell work by metabolically active cells.)
For series [2], the target named is T1, Replicase polyprotein 1ab (Severe acute respiratory syndrome coronavirus 2, UniProt P0DTD1). Briefly: Inhibition of recombinant SARS-CoV-2 main protease using Dabcyl-KTSAVLQSGFRKM{Glu(Edans)} as substrate preincubated for 10 mins followed by substrate addition and measured at 60 secs interval for 30 mins by fluorogenic assay.
Series [3] addresses T1, Replicase polyprotein 1ab. As to the kind of experiment: Competitive inhibition of recombinant SARS-CoV-2 main protease using varying levels of Dabcyl-KTSAVLQSGFRKM{Glu(Edans)} as substrate by Lineweaver-Burk plot analysis.

A word on the inhibition: it is the share of the control response that was lost under treatment. Turning to `O=C(Nc1ccccc1)c1[nH]cnc1C(=O)N1CCOCC1`, the inhibition in series [1] was found to be 15%.

Usually pIC50 stands for the IC50 on a negative log10 scale, so that one unit is a factor of ten. In the case of `O=C(Nc1ccc(Cl)c(Cl)c1)c1[nH]cnc1C(=O)N1CCOCC1`, in the series on 16HBE14o-, the Activity entry is reported as “Non-toxic”. The pIC50 in series [2] was 4.35. Further, the inhibition in series [1] was 33%. With `Cc1nc(C(=O)N2CCOCC2)c(C(=O)Nc2cc(Cl)ccc2Cl)[nH]1`, in the series on 16HBE14o-, the Activity entry was “Non-toxic”. The pIC50 in series [2] was 5.07. In addition, the inhibition in series [1] is 38%. For `Cc1cccc(C)c1OCC(=O)N[C@@H](Cc1ccccc1)[C@@H](O)C[C@H](Cc1ccccc1)NC(=O)[C@H](C(C)C)N1CCCNC1=O`, the inhibition in series [1] is 33%. As for `O=c1c2ccccc2[se]n1-c1ccccc1`, the inhibition in series [1] came to 100%. Consider `CC(C)c1nc(CN(C)C(=O)N[C@H](C(=O)N[C@@H](Cc2ccccc2)C[C@H](O)[C@H](Cc2ccccc2)NC(=O)OCc2cncs2)C(C)C)cs1`, for which the inhibition in series [1] is 24%. For the molecule `Cc1nc(C(=O)N2CCOCC2)c(C(=O)Nc2ccc(Cl)c(Cl)c2)[nH]1`, in series [2], the pIC50 was 4.64. In addition, the inhibition in series [1] was 33%.

As a reminder, the pKi is −log10 of the Ki, conventionally taken in molar units. Consider `Cc1nc(C(=O)N2CCOCC2)c(C(=O)Nc2ccc(Cl)cc2)[nH]1`, for which the Activity result in the series on 16HBE14o- was “Non-toxic”. For the same molecule, in series [2], the pIC50 is 5.32. Besides, in series [3], the pKi was 4.82. The inhibition in series [1] was determined as 38%. Consider `Cc1nc(C(=O)N2CCOCC2)c(C(=O)Nc2ccccc2)[nH]1`, for which the Activity result in the series with 16HBE14o- was “Non-toxic”. In addition, the inhibition in series [1] came out at 24%. On to `O=C(Nc1ccc(Cl)cc1)c1[nH]cnc1C(=O)N1CCOCC1`, for which, in series [1], the inhibition worked out at 3%. In the case of `O=C(Nc1cc(Cl)ccc1Cl)c1[nH]cnc1C(=O)N1CCOCC1`, the inhibition in series [1] is 18%. Still for that read-out and setting: as for `O=C(Nc1cc(Cl)c(Cl)cc1Cl)c1[nH]cnc1C(=O)N1CCOCC1`, the figure is 16%. `Cc1nc(C(=O)N2CCOCC2)c(C(=O)Nc2cc(Cl)c(Cl)cc2Cl)[nH]1`: in the series on 16HBE14o-, the Activity entry is “Non-toxic”. The pIC50 in series [2] is 4.88. Besides, the inhibition in series [1] came to 39%.
